# Patent US10662146B2, “Prodrugs of fencamfamine” (Praxis Bioresearch, LLC, priority 2015, dated 2020)
# Experiment: Single dose oral PK study in male Sprague Dawley rats (plasma by LC-MS/MS)
# Type: in vivo
# Conditions: mean; for Plasma concentration of PRX-002 (−) Isomer: PRX-002 (−) Isomer oral 5 mg/kg b.w.
# How it was run: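 Fasted adult male Sprague Dawley rats (8-10 weeks) got a single oral dose of prodrug, as Tween 80/0.5% CMC suspension, equivalent to 5 mg/kg PRX-002 (up to 10 or 15 mg/kg in some studies). Retro-orbital K2EDTA blood was sampled over 24 h. Plasma fencamfamine was measured by LC-MS/MS.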
compound,measurement,setting,value
"CCN[C@@H]1[C@@H]2CC[C@@H](C2)[C@H]1c1ccccc1 [PRX-002 (−) Isomer, (1R,2R,3S,4S)—N-Ethyl-3-phenylbicyclo[2.2.1]heptan-2-amine, reference compound]",Plasma concentration of PRX-002 (−) Isomer,0.00 h,0.00
same,Plasma concentration of PRX-002 (−) Isomer,0.08 h,0.00
same,Plasma concentration of PRX-002 (−) Isomer,0.25 h,50.20
same,Plasma concentration of PRX-002 (−) Isomer,0.50 h,159.35
same,Plasma concentration of PRX-002 (−) Isomer,1.00 h,170.35
same,Plasma concentration of PRX-002 (−) Isomer,2.00 h,101.07
same,Plasma concentration of PRX-002 (−) Isomer,4.00 h,21.30
same,Plasma concentration of PRX-002 (−) Isomer,6.00 h,0.00
same,Plasma concentration of PRX-002 (−) Isomer,24.00 h,0.00
same,AUC% extrap of PRX-002 (−) Isomer,PRX-002 (−) Isomer oral 5 mg/kg,12.904 ± 1.8410%
same,AUC(0-inf),"male, Sprague Dawley, rat, in vivo, po, 5 mg/kg, PRX-002 (−) Isomer oral 5 mg/kg, read-out: AUCinf of PRX-002 (−) Isomer",427 ± 122 ng·h/mL
same,AUC(0-t),"male, Sprague Dawley, rat, in vivo, po, 5 mg/kg, PRX-002 (−) Isomer oral 5 mg/kg, read-out: AUClast of PRX-002 (−) Isomer",371 ± 99.5 ng·h/mL
same,Cmax,"male, Sprague Dawley, rat, in vivo, po, 5 mg/kg, PRX-002 (−) Isomer oral 5 mg/kg, read-out: Cmax of PRX-002 (−) Isomer",176 ± 47.5 ng/mL
same,MRT last,"male, Sprague Dawley, rat, in vivo, po, 5 mg/kg, PRX-002 (−) Isomer oral 5 mg/kg, read-out: MRTlast of PRX-002 (−) Isomer",1.47 ± 0.104 h
same,half-life,"male, Sprague Dawley, rat, in vivo, po, 5 mg/kg, PRX-002 (−) Isomer oral 5 mg/kg, read-out: T1/2 of PRX-002 (−) Isomer (converted)",1.86 ± 0.132 h
same,Tmax,"male, Sprague Dawley, rat, in vivo, PRX-002 (−) Isomer oral 5 mg/kg, read-out: Tmax of PRX-002 (−) Isomer",0.833 ± 0.289 h
